{"source": "patent US8883763B2", "about": "(Universite Joseph Fourier, priority 2010, dated 2014)", "key": {"PP1α (PP1CA)": {"biological_target": "T1, PP1α (PP1CA) (Oryctolagus cuniculus, UniProt P62139)", "T1 construct": "purchased New England Biolabs P0754", "T1 sequence (P62139 whole entry)": "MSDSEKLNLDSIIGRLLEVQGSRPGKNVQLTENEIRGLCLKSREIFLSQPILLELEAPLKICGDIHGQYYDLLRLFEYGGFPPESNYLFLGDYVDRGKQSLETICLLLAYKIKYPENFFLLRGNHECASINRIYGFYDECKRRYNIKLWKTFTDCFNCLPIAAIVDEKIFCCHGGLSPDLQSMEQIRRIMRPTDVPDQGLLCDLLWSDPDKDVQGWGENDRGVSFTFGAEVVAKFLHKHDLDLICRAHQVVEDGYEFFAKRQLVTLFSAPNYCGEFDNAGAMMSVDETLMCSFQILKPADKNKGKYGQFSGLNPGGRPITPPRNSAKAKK", "experiment": "Protein phosphatase test (PP1 activity, DiFMUP fluorescent substrate)", "format": "biochemical", "conditions": "PP1CA at 80 mU, fluorescent substrate (50 μM), molecules from 50 μM to 50 nM; read-out: PP1 Inhibition IC50", "procedure,_shortened": "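PP1α (30 or 80 mU) in 100 mM Tris-HCl pH 7.5, 4 mM DTT, 0.2 mM EDTA, 0.5 mM MnCl2 was preincubated 15 min with compound (50 μM to 50 nM), then given 60 μM DiFMUP for 20 min at 37 °C. Phosphatase activity was read as fluorescence at 355-460 nm, three times in duplicate.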"}, "HeLa cells": {"system": "HeLa cells", "experiment": "Indirect immunofluorescence: effect on HeLa cells (mitotic arrest, microtubule depolymerization)", "format": "cell-based, human", "set-up": "key to Effect on Hela at 25 μM / Effect on Hela at 100 μM / Effect on Hela at 50 and 100 μM / Effect on Hela at 50 μM: —: −: no activity on the cells at 25 μM (if there is an effect at high concentrations, this is specified in the table).; *: weak activity (MA and/or slight depolymerization of the MTs and/or slight inhibition of proliferation),; **: average activity (MA and/or moderate depolymerization of the MTs and/or moderate inhibition of proliferation),; ***: strong activity (MA and/or pronounced depolymerization of the MTs and/or pronounced inhibition of proliferation),; ****: very strong activity (MA and/or very pronounced depolymerization of the MTs and/or strong inhibition of proliferation)", "procedure,_shortened": "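HeLa cells exposed 24 h to compound (100 μM to 50 nM; primary series 1–10 μM), DMSO controls. PFA/glutaraldehyde-fixed cells immunostained for α-tubulin, actin (phalloidin) and DNA (Hoechst); fluorescence microscopy scored phenotypes and mitotic index, with mitotic index and/or MT depolymerization evaluated at 25 μM.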"}, "[1]": {"system": "human tumours (HTB-177: pulmonary carcinoma) xenografted onto nude mice", "experiment": "HTB-177 tumour xenograft in nude mice, necrosis and histology", "format": "in vivo", "method": "All the animal experiments were carried out according to the recommendations of the local ethics commmittee. Nude mice (NCr-nu/nu females (Harlan Laboratories), were housed in a room with filtered air at 22° C., alternating 12 hours of day and 12 hours of night.\nHTB177 cells (1×10^6) were implanted sub-cutaneously in the flanks of the mice. The tumour growth was monitored twice weekly by measuring the size of the tumours with a slide caliper, thus making it possible to estimate the volume of the tumour, calculated in mm^3 according to the following formula: length×width×height×π/6.\nTreatment commenced when the tumours reached a size of approximately 250 mm^3. The weight of the animal, the volume of the tumour and the extension of the necroses were measured twice weekly.\nThe animals were sacrificed when the tumour reached 2000 mm^3 or sooner if a clinical sign of suffering, defined by the ethics committee, was observed.\nThe mice received compound 6 per os in doses and at intervals described in the captions to the figures. The control mice received the vehicle alone (identical volume of beta-cyclodextrin at 60 mg/ml))\nAfter euthanasia of the animals, the tumours were removed, cut sagittally along the median line, frozen rapidly in nitrogen liquid and stored at −80° C. […]"}}, "data": [{"smiles": "COc1ccc(-c2[nH]c(=O)c3cc(OC)ccc3c2[N+](=O)[O-])cc1", "note": "[Compound 6, 7-methoxy-3-(4-methoxyphenyl)-4-nitroisoquinoline-1(2H)-one]", "values": [{"measurement": "IC50", "setting": "PP1α (PP1CA)", "value": "≤ 9", "unit": "µM"}, {"measurement": "Effect on Hela at 25 μM", "setting": "HeLa cells; 25 μM, 24 hours, mitotic index and/or depolymerization of the MTs", "value": "****"}, {"measurement": "phenotype on microtubules and actin cytoskeleton, HeLa cells in interphase", "setting": "HeLa cells; 1 and 10 μM for 24 hours", "value": "depolymerization of the microtubules and a reorganization of the actin cytoskeleton"}, {"measurement": "phenotype on microtubules and actin cytoskeleton, HeLa cells in mitosis", "setting": "HeLa cells; 1 and 10 μM for 24 hours", "value": "depolymerization of the spindle microtubules and actin blebbing at the level of the cortex"}, {"measurement": "tumour necrosis (macroscopic)", "setting": "[1]; 40 mg/kg twice weekly per os, after one cycle of administration (day 7)", "value": "central necrosis"}, {"measurement": "necrosis on H&E-stained tumour sections", "setting": "[1]; 48 hours after administration of 40 mg/kg", "value": "extensive areas of necrosis"}]}]}
